According to patent US11970504B1, “2-benzo-[3,4-b] quinolino-{b,g]indeno [1′,2′:3,4] fluoreno-[1,2-d] Oxonine-5,11,16,21-tetraone as an antimicrobial compound” (KING FAISAL UNIVERSITY, priority 2023, dated 2024):

Assays:
[1] = test system: Pseudomonas aeruginosa; assay: Antimicrobial screening by agar dilution, Pseudomonas aeruginosa; format: cell-based; details: after 10, 20, 40 and 60 minutes at all dilutions 1:100, 1:200, 1:400, 1:800
Description: (§1) The antibacterial properties of the synthesized compound 2-benzo-[3,4-b]quinolino-[b,g]indeno[1′,2′:3,4]fluoreno-[1,2-d]oxonine-5,11,16,21-tetraone were studied by the method of agar dilution. Test solutions of each compound was prepared in concentration of 1% using dimethylformamide as a solvent then they are diluted in physiological solution to obtain the final experimental dilutions 1:100, 1:200, 1:400, 1:800. The effect of these substances are compared with furacillin in a controllable study. The testing microbes used were gram positive bacteria Staphylococcus aureus, gram negative bacteria Pseudomonas aeruginosa and Escherichia co/i and Candida albicans fungus. The experiments used for this survey were meat-pentonlu agar (EPA) for cultivation of bacteria and Saburo environment for the fungus. Each experiment used 1 mL of test solution on each plate […]. Two drops of emulsified with microbes feel were added. All experimental samples were taken from the agar after 10, 20, 40, 60 minutes in the environment on the basis of Patrk planted. The bacteria were cultivated at a temperature of 37° C. for 1 day and the mushroom was kept in a thermostat for […] at a temperature of 28° C. Then results were checked.

[2] = test system: Escherichia coli; assay: Antimicrobial screening by agar dilution, Escherichia coli; format: cell-based; details: after 10, 20, 40 and 60 minutes at all dilutions 1:100, 1:200, 1:400, 1:800
Description: as §1

[3] = test system: Staphylococcus aureus; assay: Antimicrobial screening by agar dilution, Staphylococcus aureus; format: cell-based; details: after 10, 20, 40 and 60 minutes at all dilutions 1:100, 1:200, 1:400, 1:800
Description: as §1

[4] = test system: Candida albicans; assay: Antimicrobial screening by agar dilution, Candida albicans; format: cell-based; details: after 10, 20, 40 and 60 minutes at all dilutions 1:100, 1:200, 1:400, 1:800
Description: as §1

melting point: 251 °C
Compound: O=C1Oc2nc3ccccc3cc2-c2c(c3c4ccccc4c(=O)c3c3c2c(=O)c2ccccc23)C(=O)c2ccccc21 [2-benzo-[3,4-b]quinolino-[b,g]indeno[1′,2′:3,4]fluoreno-[1,2-d]oxonine-5,11,16,21-tetraone]
inhibition activity [1]: highest inhibition activity
inhibition activity [2]: highest inhibition activity
inhibition activity [3]: highest inhibition activity
inhibition activity [4]: highest inhibition activity
